# Results as given in PubChem BioAssay (NCI).
#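 Exposure lasted 48 hours, with cells grown in 96-well plates and compounds tested at five concentrations. Abbreviation: GI50, concentration required for 50% inhibition of growth. TGI: concentration producing complete growth inhibition.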
# Columns and labels:
# Assay in all cases: inhibition of tumour cell growth, NCI panel, 48 h
# 786-0 renal = system: 786-0 renal
# A498 renal = system: A498 renal
# A549 NSCLC = system: A549 NSCLC
# ACHN renal = system: ACHN renal
# BT-549 breast = system: BT-549 breast
# CAKI-1 renal = system: CAKI-1 renal
# CCRF-CEM leukemia = system: CCRF-CEM leukemia
# COLO 205 colon = system: COLO 205 colon
# DU-145 prostate = system: DU-145 prostate
# EKVX NSCLC = system: EKVX NSCLC
# HCC-2998 colon = system: HCC-2998 colon
# HCT-116 colon = system: HCT-116 colon
# HCT-15 colon = system: HCT-15 colon
# HL-60(TB) leukemia = system: HL-60(TB) leukemia
# HOP-62 NSCLC = system: HOP-62 NSCLC
# HOP-92 NSCLC = system: HOP-92 NSCLC
# HS 578T breast = system: HS 578T breast
# HT29 colon = system: HT29 colon
# K-562 leukemia = system: K-562 leukemia
# KM12 colon = system: KM12 colon
# LOX IMVI melanoma = system: LOX IMVI melanoma
# M14 melanoma = system: M14 melanoma
# MALME-3M melanoma = system: MALME-3M melanoma
# MCF7 breast = system: MCF7 breast
# MDA-MB-231 breast = system: MDA-MB-231 breast
# MDA-MB-435 = system: MDA-MB-435
# MOLT-4 leukemia = system: MOLT-4 leukemia
# NCI-H226 lung = system: NCI-H226 lung
# NCI-H23 lung = system: NCI-H23 lung
# NCI-H460 lung = system: NCI-H460 lung
# NCI/ADR-RES ovarian = system: NCI/ADR-RES ovarian
# OVCAR-3 ovarian = system: OVCAR-3 ovarian
# OVCAR-4 ovarian = system: OVCAR-4 ovarian
# OVCAR-5 ovarian = system: OVCAR-5 ovarian
# OVCAR-8 ovarian = system: OVCAR-8 ovarian
# PC-3 prostate = system: PC-3 prostate
# RPMI-8226 leukemia = system: RPMI-8226 leukemia
# RXF 393 renal = system: RXF 393 renal
# SF-268 CNS = system: SF-268 CNS
# SF-295 CNS = system: SF-295 CNS
# SF-539 CNS = system: SF-539 CNS
# SK-MEL-2 melanoma = system: SK-MEL-2 melanoma
# SK-MEL-28 melanoma = system: SK-MEL-28 melanoma
# SK-MEL-5 melanoma = system: SK-MEL-5 melanoma
# SN12C renal = system: SN12C renal
# SNB-19 CNS = system: SNB-19 CNS
# SNB-75 CNS = system: SNB-75 CNS
# SR leukemia = system: SR leukemia
# SW-620 colon = system: SW-620 colon
# T-47D breast = system: T-47D breast
# TK-10 renal = system: TK-10 renal
# U251 CNS = system: U251 CNS
# UACC-257 melanoma = system: UACC-257 melanoma
# UACC-62 melanoma = system: UACC-62 melanoma
smiles,measurement,setting,value
COc1ccc2c(CN3CCC(C(=O)O)CC3)cc3cc4c(cc3c2c1)OCO4,GI50,786-0 renal,2.41 µM
same,TGI,786-0 renal,14.2 µM
same,GI50,A498 renal,1.79 µM
same,TGI,A498 renal,3.33 µM
same,GI50,A549 NSCLC,1.77 µM
same,TGI,A549 NSCLC,4.34 µM
same,GI50,ACHN renal,1.41 µM
same,TGI,ACHN renal,5.45 µM
same,GI50,BT-549 breast,4.03 µM
same,TGI,BT-549 breast,17.6 µM
same,GI50,CAKI-1 renal,2.44 µM
same,TGI,CAKI-1 renal,7.8 µM
same,GI50,CCRF-CEM leukemia,1 µM
same,TGI,CCRF-CEM leukemia,6.5 µM
same,GI50,COLO 205 colon,1.55 µM
same,TGI,COLO 205 colon,4.33 µM
same,GI50,DU-145 prostate,3.87 µM
same,TGI,DU-145 prostate,> 100 µM
same,GI50,EKVX NSCLC,3.69 µM
same,TGI,EKVX NSCLC,20.6 µM
same,GI50,HCC-2998 colon,2.72 µM
same,TGI,HCC-2998 colon,11 µM
same,GI50,HCT-116 colon,1.4 µM
same,TGI,HCT-116 colon,8.78 µM
same,GI50,HCT-15 colon,2.76 µM
same,TGI,HCT-15 colon,16.7 µM
same,GI50,HL-60(TB) leukemia,3.97 µM
same,TGI,HL-60(TB) leukemia,15.3 µM
same,GI50,HOP-62 NSCLC,2.71 µM
same,TGI,HOP-62 NSCLC,11.4 µM
same,GI50,HOP-92 NSCLC,1.62 µM
same,TGI,HOP-92 NSCLC,5.34 µM
same,GI50,HS 578T breast,3.97 µM
same,TGI,HS 578T breast,25.8 µM
same,GI50,HT29 colon,2.33 µM
same,TGI,HT29 colon,13.8 µM
same,GI50,K-562 leukemia,2.66 µM
same,TGI,K-562 leukemia,11.3 µM
same,GI50,KM12 colon,2.52 µM
same,TGI,KM12 colon,10.4 µM
same,GI50,LOX IMVI melanoma,1.9 µM
same,TGI,LOX IMVI melanoma,9.37 µM
same,GI50,M14 melanoma,2.11 µM
same,TGI,M14 melanoma,4.94 µM
same,GI50,MALME-3M melanoma,1.58 µM
same,TGI,MALME-3M melanoma,3.45 µM
same,GI50,MCF7 breast,3.1 µM
same,TGI,MCF7 breast,18.3 µM
same,GI50,MDA-MB-231 breast,3.87 µM
same,TGI,MDA-MB-231 breast,30.7 µM
same,GI50,MDA-MB-435,2.66 µM
same,TGI,MDA-MB-435,7.42 µM
same,GI50,MOLT-4 leukemia,3.05 µM
same,TGI,MOLT-4 leukemia,9.73 µM
same,GI50,NCI-H226 lung,2.03 µM
same,TGI,NCI-H226 lung,4.64 µM
same,GI50,NCI-H23 lung,2.53 µM
same,TGI,NCI-H23 lung,8.9 µM
same,GI50,NCI-H460 lung,2.97 µM
same,TGI,NCI-H460 lung,16.1 µM
same,GI50,NCI/ADR-RES ovarian,2.35 µM
same,TGI,NCI/ADR-RES ovarian,6.99 µM
same,GI50,OVCAR-3 ovarian,2.85 µM
same,TGI,OVCAR-3 ovarian,9.64 µM
same,GI50,OVCAR-4 ovarian,4.15 µM
same,TGI,OVCAR-4 ovarian,> 100 µM
same,GI50,OVCAR-5 ovarian,2.55 µM
same,TGI,OVCAR-5 ovarian,6.87 µM
same,GI50,OVCAR-8 ovarian,1.28 µM
same,TGI,OVCAR-8 ovarian,4.86 µM
same,GI50,PC-3 prostate,2.26 µM
same,TGI,PC-3 prostate,6.05 µM
same,GI50,RPMI-8226 leukemia,1.4 µM
same,TGI,RPMI-8226 leukemia,3.59 µM
same,GI50,RXF 393 renal,1.14 µM
same,TGI,RXF 393 renal,3.6 µM
same,GI50,SF-268 CNS,3.67 µM
same,TGI,SF-268 CNS,25.4 µM
same,GI50,SF-295 CNS,2.39 µM
same,TGI,SF-295 CNS,10.1 µM
same,GI50,SF-539 CNS,3.38 µM
same,TGI,SF-539 CNS,14 µM
same,GI50,SK-MEL-2 melanoma,1.48 µM
same,TGI,SK-MEL-2 melanoma,3 µM
same,GI50,SK-MEL-28 melanoma,2.28 µM
same,TGI,SK-MEL-28 melanoma,6.02 µM
same,GI50,SK-MEL-5 melanoma,1.62 µM
same,TGI,SK-MEL-5 melanoma,3.14 µM
same,GI50,SN12C renal,1.27 µM
same,TGI,SN12C renal,4.08 µM
same,GI50,SNB-19 CNS,3.35 µM
same,TGI,SNB-19 CNS,22.6 µM
same,GI50,SNB-75 CNS,2.41 µM
same,TGI,SNB-75 CNS,9.03 µM
same,GI50,SR leukemia,0.886 µM
same,TGI,SR leukemia,5.78 µM
same,GI50,SW-620 colon,2.51 µM
same,TGI,SW-620 colon,39.4 µM
same,GI50,T-47D breast,3.62 µM
same,TGI,T-47D breast,17.7 µM
same,GI50,TK-10 renal,3.23 µM
same,TGI,TK-10 renal,25 µM
same,GI50,U251 CNS,2.74 µM
same,TGI,U251 CNS,> 100 µM
same,GI50,UACC-257 melanoma,1.85 µM
same,TGI,UACC-257 melanoma,3.54 µM
same,GI50,UACC-62 melanoma,1.59 µM
same,TGI,UACC-62 melanoma,3.03 µM
